Patent US20250134103A1, “PESTICIDAL MIXTURES COMPRISING AN IS[…]” (priority 2021, published 2025)
Like-named read-outs stand apart in the source and are kept apart here.

Legend:
Assay type in all cases: in vivo
[1] = tested on: green peach aphid (Myzus persicae); experiment: Test 3: control of green peach aphid through systemic means, artificial diet under membrane; conditions: aphid mortality and fecundity after 3 days
Source text: For evaluating control of green peach aphid (Myzus persicae) through systemic means the test unit consisted of 96-well-microtiter plates containing liquid artificial diet under an artificial membrane.
Different concentrations of formulated compounds or mixtures were pipetted into the aphid diet, using a custom built pipetter, at two replications.
(§1) For experimental mixtures in these tests identical volumes of both mixing partners at the desired concentrations respectively, were mixed together.
After application, 5-8 adult aphids were placed on the artificial membrane inside the microtiter plate wells. The aphids were then allowed to suck on the treated aphid diet and incubated at 23±1° C. 50±5% RH for 3 days. Aphid mortality and fecundity was then visually assessed.

[2] = tested on: tobacco budworm (Plutella xylostella); experiment: Test 5: control of Plutella xylostella, 96-well microtiter plates with insect diet and eggs; conditions: egg and larval mortality after 5 days
Procedure: For evaluating control of […] (Plutella xylostella) the test unit consisted of 96-well-microtiter plates containing an insect diet and 15-25 P. xylostella eggs.
The compounds or mixtures were formulated using a solution containing 75% water and 25% DMSO. Different concentrations of formulated compounds or mixtures were sprayed onto the insect diet at 5 μl, using a custom-built micro atomizer, at two replications.
as §1
After application, microtiter plates were incubated at 28±1° C., 80±5% RH for 5 days. Egg and larval mortality was then visually assessed.

[3] = tested on: tobacco budworm (Heliothis virescens); experiment: Test 1: control of tobacco budworm, 96-well microtiter plates with insect diet and eggs
Procedure: For evaluating control of tobacco budworm (Heliothis virescens) the test unit consisted of 96-well-microtiter plates containing an insect diet and 15-25 H. virescens eggs.
The compounds or mixtures were formulated using a solution containing 75% water and 25% DMSO. Different concentrations of formulated compounds or mixtures were sprayed onto the insect diet at 10 μl, using a custom-built micro atomizer, at two replications.
For experimental mixtures in these tests, identical volumes of both mixing partners at the desired concentrations respectively, were mixed together.
After application, microtiter plates were incubated at 28±1° C., 80±5% RH for 5 days. Egg and larval mortality were then visually assessed. For the mixture tested the results are listed in Tables 1.1 to 1.7, wherein the * marks synergistic control effect according to Colby's equation.

[4] = tested on: boll weevil (Anthonomus grandis); experiment: Test 4: control of boll weevil, 24-well microtiter plates with insect diet and eggs; conditions: egg and larval mortality after 5 days
Procedure: For evaluating control of boll weevil (Anthonomus grandis) the test unit consisted of 24-well-microtiter plates containing an insect diet and 20-30 A. grandis eggs.
The compounds or mixtures were formulated using a solution containing 75% water and 25% DMSO. Different concentrations of formulated compounds or mixtures were sprayed onto the insect diet at 20 μl, using a custom-built micro atomizer, at two replications.
as §1
After application, microtiter plates were incubated at 23±1° C., 50±5% RH for 5 days. Egg and larval mortality was then visually assessed. For the mixture tested the results are listed in tables 4.1 to 4.4, wherein the * marks synergistic control effect according to Colby's equation.

[5] = tested on: yellow fever mosquito (Aedes aegypti); experiment: whole plant or invertebrate
Procedure: For evaluating control of yellow fever mosquito (Aedes aegypti) the test unit consisted of 96-well-microtiter plates containing 200 μl of tap water per well and 5-15 freshly hatched A. aegypti larvae.
The compounds or mixtures were formulated using a solution containing 75% water and 25% DMSO. Different concentrations of formulated compounds or mixtures were sprayed onto the insect diet at 2.5 μl, using a custom-built micro atomizer, at two replications.
as §1
After application, microtiter plates were incubated at 28±1° C., 80±5% RH for 2 days. Larval mortality was then visually assessed. For the mixture tested the results are listed in Table 2.1 to 2.11, wherein the * marks synergistic control effect according to Colby's equation.

[6] = Aedes aegypti, 48 h, 4 ppm, larval mortality after 2 days, read-out: Average control observed (%)
[7] = 2 ppm, larval mortality after 2 days
[8] = Heliothis virescens, 120 h, 0.4 ppm, egg and larval mortality after 5 days, read-out: Average control observed (%)
[9] = Aedes aegypti, 48 h, 0.4 ppm, larval mortality after 2 days, read-out: Average control observed (%)
[10] = 0.4 ppm, larval mortality after 2 days

O=[N+]([O-])NC1=NCCN1Cc1ccc(Cl)nc1 [Imidacloprid (3b), imidacloprid]
Average control observed (%) ([1]; 0.8 ppm): 0%

CN1COCN(Cc2cnc(Cl)s2)/C1=N\[N+](=O)[O-] [Thiamethoxam (3a), thiamethoxam]
Average control observed (%) ([2]; 0.03 ppm): 0% | pest or weed control at 0.03 ppm ([3]; Heliothis virescens, 120 h, 0.03 ppm, egg and larval mortality after 5 days, read-out: Average control observed (%)): 0% | Average control observed (%) ([4]; 0.03 ppm): 0%

N#C/N=C1\SCCN1Cc1ccc(Cl)nc1 [Thiacloprid (3e), thiacloprid]
pest or weed control at 4 ppm [5, 6]: 50%

CN(C(=O)c1ccccc1)c1cccc(C(=O)Nc2c(Br)cc(C(F)(C(F)(F)F)C(F)(F)F)cc2C(F)(F)F)c1F [Broflanilide (16), broflanilide]
Average control observed (%) [5, 7]: 12.5%

spinetoram [Spinetoram (4b)]
Average control observed (%) ([3]; 0.2 ppm, egg and larval mortality after 5 days): 0%

Cc1c(COC(=O)[C@@H]2[C@H](/C=C(\Cl)C(F)(F)F)C2(C)C)cccc1-c1ccccc1 (racemic) [Bifenthrin (2b), bifenthrin]
pest or weed control at 0.4 ppm [3, 8]: 0% | pest or weed control at 0.4 ppm [5, 9]: 25%

CC1(C)C(C=C(Cl)Cl)C1C(=O)OC(C#N)c1ccc(F)c(Oc2ccccc2)c1 (centres unmarked) [Cyfluthrin (2c), cyfluthrin]
Average control observed (%) [5, 10]: 0%

CCOC(=O)OC1=C(c2cc(C)ccc2C)C(=O)N[C@]12CC[C@@H](OC)CC2 [Spirotetramat (13a), spirotetramat]
pest or weed control at 80 ppm ([5]; Aedes aegypti, 48 h, 80 ppm, larval mortality after 2 days, read-out: Average control observed (%)): 0%

Cc1cc(C(F)(C(F)(F)F)C(F)(F)F)ccc1NC(=O)c1cccc(I)c1C(=O)NC(C)(C)CS(C)(=O)=O [Flubendiamide (14a), Flubendiamide]
pest or weed control at 0.4 ppm [3, 8]: 12.5%

O=C(NC(=O)c1c(F)cccc1F)Nc1cc(Cl)c(F)c(Cl)c1F [Teflubenzuron (9), teflubenzuron]
Average control observed (%) ([4]; 0.1 ppm): 12.5%

O=C1C=C(N(Cc2ccc(Cl)nc2)CC(F)F)CO1 [Flupyradifurone (3i), flupyradifurone]
Average control observed (%) ([1]; 2 ppm): 12.5%

CCN(C(=O)c1cnn(C(C)C(C)C)c1C)c1ccnnc1 (centres unmarked) [Dimpropyridaz (17b), dimpropyridaz]
Average control observed (%) ([1]; 2 ppm): 0%

CCOCn1c(-c2ccc(Cl)cc2)c(C#N)c(Br)c1C(F)(F)F [Chlorfenapyr (8), chlorfenapyr]
pest or weed control at 0.8 ppm ([5]; Aedes aegypti, 48 h, 0.8 ppm, larval mortality after 2 days, read-out: Average control observed (%)): 0%

COc1cccc(C(=O)NN(C(=O)c2cc(C)cc(C)c2)C(C)(C)C)c1C [Methoxyfenozide (11), methoxyfenozide]
pest or weed control at 0.4 ppm [3, 8]: 37.5%

N#Cc1nn(-c2c(Cl)cc(C(F)(F)F)cc2Cl)c(N)c1[S+]([O-])C(F)(F)F (centres unmarked) [Fipronil (1b), fipronil]
pest or weed control at 0.08 ppm ([3]; Heliothis virescens, 120 h, read-out: Average control observed (%)): 0% | Average control observed (%) ([4]; 0.4 ppm): 12.5% | pest or weed control at 0.4 ppm [5, 9]: 0%

O=C(NCc1ncccn1)c1ccc(C2=NO[C@@](c3cc(Cl)c(F)c(Cl)c3)(C(F)(F)F)C2)c2ccncc12 [Compound I-1, 5-[(5S)-5-(3,5-dichloro-4-fluoro-phenyl)-5-(trifluoromethyl)-4H-isoxazol-3-yl]-N-(pyrimidin-2-ylmethyl)isoquinoline-8-carboxamide]
Average control observed (%) ([2]; 0.05 ppm): 0% | pest or weed control at 0.009 ppm ([3]; Heliothis virescens, 120 h, 0.009 ppm, egg and larval mortality after 5 days, read-out: Average control observed (%)): 0% | pest or weed control at 0.048 ppm ([3]; Heliothis virescens, 120 h, 0.048 ppm, egg and larval mortality after 5 days, read-out: Average control observed (%)): 0% | pest or weed control at 0.24 ppm ([3]; Heliothis virescens, 120 h, 0.24 ppm, egg and larval mortality after 5 days, read-out: Average control observed (%)): 0% | Average control observed (%) ([1]; 0.009 ppm): 0% | Average control observed (%) ([1]; 0.24 ppm): 0% | Average control observed (%) ([4]; 0.048 ppm): 0% | Average control observed (%) ([4]; 0.24 ppm): 0% | pest or weed control at 0.009 ppm ([5]; Aedes aegypti, 48 h, 0.009 ppm, larval mortality after 2 days, read-out: Average control observed (%)): 0% | pest or weed control at 0.048 ppm ([5]; Aedes aegypti, 48 h, 0.048 ppm, larval mortality after 2 days, read-out: Average control observed (%)): 0% | pest or weed control at 0.24 ppm ([5]; Aedes aegypti, 48 h, 0.24 ppm, larval mortality after 2 days, read-out: Average control observed (%)): 0%

CNC(=O)c1cc(Cl)cc(C)c1NC(=O)c1cc(Br)nn1-c1ncccc1Cl [Chlorantraniliprole (14b), Chlorantraniliprole]
Average control observed (%) ([1]; 0.4 ppm): 0%

COC(=O)N(C(=O)N1CO[C@@]2(C(=O)OC)Cc3cc(Cl)ccc3C2=N1)c1ccc(OC(F)(F)F)cc1 [Indoxacarb (12), indoxacarb]
Average control observed (%) ([3]; 0.4 ppm, egg and larval mortality after 5 days): 0% | Average control observed (%) ([4]; 0.08 ppm): 25% | Average control observed (%) ([5]; 0.08 ppm, larval mortality after 2 days): 0% | Average control observed (%) [5, 10]: 0% | Average control observed (%) [5, 7]: 0%

CN/C(=N\[N+](=O)[O-])NCc1cnc(Cl)s1 [Clothianidin (3c), clothianidin]
pest or weed control at 1 ppm ([5]; Aedes aegypti, 48 h, 1 ppm, larval mortality after 2 days, read-out: Average control observed (%)): 0%

CC1(C)C(C=C(Cl)Cl)C1C(=O)OC(C#N)c1cccc(Oc2ccccc2)c1 (stereo not drawn) [alpha-cypermethrin (2a), alpha-cypermethrin]
pest or weed control at 0.4 ppm [3, 8]: 25%

CC1(C)[C@H](/C=C(\Cl)C(F)(F)F)[C@@H]1C(=O)O[C@@H](C#N)c1cccc(Oc2ccccc2)c1 [lamda-cyhalothrin (2e), lamda-cyhalothrin]
Average control observed (%) ([3]; 0.16 ppm, egg and larval mortality after 5 days): 50% | Average control observed (%) ([5]; 0.16 ppm, larval mortality after 2 days): 0%

CN/C(=N/CC1CCOC1)N[N+](=O)[O-] (centres unmarked) [Dinotefuran (3f), dinotefuran]
pest or weed control at 20 ppm ([3]; Heliothis virescens, 120 h, 20 ppm, egg and larval mortality after 5 days, read-out: Average control observed (%)): 0% | pest or weed control at 4 ppm ([5]; Aedes aegypti, 48 h, read-out: Average control observed (%)): 0%

C/C(=N\C#N)N(C)Cc1ccc(Cl)nc1 [Acetamiprid (3d), acetamiprid]
pest or weed control at 4 ppm [5, 6]: 0%
